The values below come from patent publication US11771709B2, “ALK protein degradation agent and anti-tumor application thereof” (ShanghaiTech University, priority 2017, dated 2023).

The test system of one experiment is SR (NPM-ALK) cells. As to the kind of experiment: Growth inhibition IC50 in ALCL SR cells (CCK8/WST, 72 hours). The format is cell-based. The note with it: SR cells.
In experiment [1] the test system is NCI-H3122 (EML4-ALK, V1) cells. As to the kind of experiment: Growth inhibition IC50 in lung cancer H3122 cells (Cell Titer Blue / Cell Titer Glo). The settings on record: for pIC50: Homo sapiens, NCI-H3122, H3122 cells. (In general: Resazurin is reduced to fluorescent resorufin, in cell work by metabolically active cells.)
Experimental: (§1) SR (NPM-ALK) and NCI-H2228 (EML4-ALK, V3) cells were purchased from ATCC. […] All Cells were cultured in RPMI1640 medium with 10% FBS and Penicillin-Streptomycin in 37° C. incubator with 5% CO2.
(§2) Cells were seeded at specific density in 96 well plates one day before treatment. […] Viable cells were measured via CCK8 reagent and IC50s were calculated via Prism Graphad. Experiments were repeated at least three times.
Experiment [2] deals with T1, ALK protein in H3122 (EML4-ALK) cells (Homo sapiens, UniProt Q9UM73).
T1 construct: EML4 (Echinoderm microtubule-associated protein-like 4, Q9HC35) fusion partner, variant 1; host or cells: NCI-H3122 lung adenocarcinoma cells; the other entry of the earlier key: EML4 (Q9HC35, Echinoderm microtubule-associated protein-like 4)
T1 sequence (Q9UM73 with tags, fused parts or gaps): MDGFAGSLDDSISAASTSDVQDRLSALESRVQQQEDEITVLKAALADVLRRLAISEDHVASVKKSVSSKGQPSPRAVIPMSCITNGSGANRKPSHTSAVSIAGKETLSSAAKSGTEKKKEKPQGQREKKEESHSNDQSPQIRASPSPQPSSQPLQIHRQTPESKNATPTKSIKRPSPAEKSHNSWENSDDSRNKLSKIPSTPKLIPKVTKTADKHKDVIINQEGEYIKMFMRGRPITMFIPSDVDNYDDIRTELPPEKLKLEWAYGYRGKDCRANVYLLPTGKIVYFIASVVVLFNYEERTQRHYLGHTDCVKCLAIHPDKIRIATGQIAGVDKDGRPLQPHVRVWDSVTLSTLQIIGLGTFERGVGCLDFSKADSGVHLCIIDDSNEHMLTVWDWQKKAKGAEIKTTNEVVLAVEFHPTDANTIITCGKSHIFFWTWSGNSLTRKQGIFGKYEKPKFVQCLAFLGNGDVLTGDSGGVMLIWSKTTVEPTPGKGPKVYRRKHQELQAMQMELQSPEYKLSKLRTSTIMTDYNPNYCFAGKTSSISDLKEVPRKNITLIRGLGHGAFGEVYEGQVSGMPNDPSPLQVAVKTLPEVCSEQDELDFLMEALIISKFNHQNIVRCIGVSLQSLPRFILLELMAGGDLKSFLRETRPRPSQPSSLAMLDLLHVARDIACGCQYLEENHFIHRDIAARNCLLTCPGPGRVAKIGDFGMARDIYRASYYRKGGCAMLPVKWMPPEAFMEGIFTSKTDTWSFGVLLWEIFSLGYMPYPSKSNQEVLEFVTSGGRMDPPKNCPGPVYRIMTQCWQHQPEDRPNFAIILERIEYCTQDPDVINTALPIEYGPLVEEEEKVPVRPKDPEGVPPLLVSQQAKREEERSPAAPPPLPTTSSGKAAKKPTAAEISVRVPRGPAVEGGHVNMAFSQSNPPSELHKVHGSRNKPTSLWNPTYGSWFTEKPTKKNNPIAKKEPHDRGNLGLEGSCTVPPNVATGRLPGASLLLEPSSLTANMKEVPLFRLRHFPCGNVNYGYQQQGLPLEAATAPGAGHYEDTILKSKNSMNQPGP
As to the kind of experiment: Western blot of ALK protein level (degradation, DC50), ALK phosphorylation and downstream signaling in H3122 cells. The settings on record: for DC50: ALK protein degradation in H3122 cells. The format is cell-based.

The structures appear in SMILES notation. pIC50: −log10 of the molar value.

Experimental for SR (NPM-ALK) cells: as §1, §2

In the case of `Cc1cc(Nc2ncc(Cl)c(Nc3ccccc3S(=O)(=O)C(C)C)n2)c(OC(C)C)cc1C1CCN(C(=O)CCCCCCC(=O)N[C@H](C(=O)N2C[C@H](O)C[C@H]2C(=O)NCc2ccc(-c3scnc3C)cc2)C(C)(C)C)CC1` [SIAIS074008, (2S,4R)-1-((S)-2-(8-(4-(4-((5-chloro-4-((2-(isopropylsulfonyl)phenyl)amino)pyrimidin-2-yl)amino)-5-isopropoxy-2-methylphenyl)piperidin-1-yl)-8-oxooctanamido)-3,3-dimethylbutanoyl)-4-hydroxy-N-(4-(4-methylthiazol-5-yl)benzyl)pyrrolidine-2-carboxamide], the growth inhibition effect entry (in the experiment on SR (NPM-ALK) cells; in experiment [1] (H3122 cells)) was “IC50 at the nano mole range” throughout. The pIC50 (as a rule, the negative decadic logarithm of the IC50, by convention in mol/L) in experiment [1] (CTB (Cell Titer Blue)) is 6.37.
`Cc1cc(Nc2ncc(Cl)c(Nc3ccccc3S(=O)(=O)C(C)C)n2)c(OC(C)C)cc1C1CCN(C(=O)CCCC(=O)N[C@H](C(=O)N2C[C@H](O)C[C@H]2C(=O)NCc2ccc(-c3scnc3C)cc2)C(C)(C)C)CC1` [SIAIS074018, (2S,4R)-1-((S)-2-(5-(4-(4-((5-chloro-4-((2-(isopropylsulfonyl)phenyl)amino)pyrimidin-2-yl)amino)-5-isopropoxy-2-methylphenyl)piperidin-1-yl)-5-oxopentanamido)-3,3-dimethylbutanoyl)-4-hydroxy-N-(4-(4-methylthiazol-5-yl)benzyl)pyrrolidine-2-carboxamide]: the DC50 – broadly, the concentration at which degradation of the target reaches its halfway point – in experiment [2] is 100 to 500 nM. Moreover, the pIC50 in experiment [1] (CTB (Cell Titer Blue)) was 6.68.
The like results for `Cc1cc(Nc2ncc(Cl)c(Nc3ccccc3S(=O)(=O)C(C)C)n2)c(OC(C)C)cc1C1CCN(C(=O)CCCCC(=O)N[C@H](C(=O)N2C[C@H](O)C[C@H]2C(=O)NCc2ccc(-c3scnc3C)cc2)C(C)(C)C)CC1` [SIAIS074021, (2S,4R)-1-((S)-2-(6-(4-(4-((5-chloro-4-((2-(isopropylsulfonyl)phenyl)amino)pyrimidin-2-yl)amino)-5-isopropoxy-2-methylphenyl)piperidin-1-yl)-6-oxohexanamido)-3,3-dimethylbutanoyl)-4-hydroxy-N-(4-(4-methylthiazol-5-yl)benzyl)pyrrolidine-2-carboxamide] were, in that order, 50 to 100 nM and 6.90.
The like results for `Cc1cc(Nc2ncc(Cl)c(Nc3ccccc3S(=O)(=O)C(C)C)n2)c(OC(C)C)cc1C1CCN(C(=O)CCCCCC(=O)N[C@H](C(=O)N2C[C@H](O)C[C@H]2C(=O)NCc2ccc(-c3scnc3C)cc2)C(C)(C)C)CC1` [SIAIS074022, (2S,4R)-1-((S)-2-(7-(4-(4-((5-chloro-4-((2-(isopropylsulfonyl)phenyl)amino)pyrimidin-2-yl)amino)-5-isopropoxy-2-methylphenyl)piperidin-1-yl)-7-oxoheptanamido)-3,3-dimethylbutanoyl)-4-hydroxy-N-(4-(4-methylthiazol-5-yl)benzyl)pyrrolidine-2-carboxamide] were, in that order, 20 to 100 nM and 6.57.
`Cc1cc(Nc2ncc(Cl)c(Nc3ccccc3S(=O)(=O)C(C)C)n2)c(OC(C)C)cc1C1CCN(C(=O)CCCCCCCC(=O)N[C@H](C(=O)N2C[C@H](O)C[C@H]2C(=O)NCc2ccc(-c3scnc3C)cc2)C(C)(C)C)CC1` [SIAIS074024, (2S,4R)-1-((S)-2-(9-(4-(4-((5-chloro-4-((2-(isopropylsulfonyl)phenyl)amino)pyrimidin-2-yl)amino)-5-isopropoxy-2-methylphenyl)piperidin-1-yl)-9-oxononanamido)-3,3-dimethylbutanoyl)-4-hydroxy-N-(4-(4-methylthiazol-5-yl)benzyl)pyrrolidine-2-carboxamide] registered a DC50 in experiment [2] of 10 to 50 nM. The “concentration at which ALK protein level was reduced” value in experiment [2] (H3122 cells, western blot) turned out to be 50 nM. Also, the pIC50 in experiment [1] (CTB (Cell Titer Blue)) is 6.14.
In experiment [2], `Cc1cc(Nc2ncc(Cl)c(Nc3ccccc3S(=O)(=O)C(C)C)n2)c(OC(C)C)cc1C1CCN(C(=O)CCCCCCCCC(=O)N[C@H](C(=O)N2C[C@H](O)C[C@H]2C(=O)NCc2ccc(-c3scnc3C)cc2)C(C)(C)C)CC1` [SIAIS074025, (2S,4R)-1-((S)-2-(10-(4-(4-((5-chloro-4-((2-(isopropylsulfonyl)phenyl)amino)pyrimidin-2-yl)amino)-5-isopropoxy-2-methylphenyl)piperidin-1-yl)-10-oxodecanamido)-3,3-dimethylbutanoyl)-4-hydroxy-N-(4-(4-methylthiazol-5-yl)benzyl)pyrrolidine-2-carboxamide] returned a DC50 of 100 to 500 nM. In experiment [1] (CTB (Cell Titer Blue)), this compound had a negative logarithm of the IC50 (pIC50) of 5.91.
In turn, `Cc1cc(Nc2ncc(Cl)c(Nc3ccccc3S(=O)(=O)C(C)C)n2)c(OC(C)C)cc1C1CCN(C(=O)CCOCCOCCNc2cccc3c2C(=O)N(C2CCC(=O)NC2=O)C3=O)CC1` (stereo not shown) [SIAIS151023, 4-((2-(2-(3-(4-(4-((5-chloro-4-((2-(isopropylsulfonyl)phenyl)amino)pyrimidin-2-yl)amino)-5-isopropoxy-2-methylphenyl)piperidin-1-yl)-3-oxopropoxy)ethoxy)ethyl)amino)-2-(2,6-dioxopiperidin-3-yl)isoindoline-1,3-dione] came in with a DC50 in experiment [2] of 10 to 100 nM. The pIC50 is 7.82 in experiment [1] (CTB (Cell Titer Blue)) and 7.12 in experiment [1] (CTG (Cell Titer Glo)).
As to `Cc1cc(Nc2ncc(Cl)c(Nc3ccccc3S(=O)(=O)C(C)C)n2)c(OC(C)C)cc1C1CCN(C(=O)CCOCCOCCOCCNc2cccc3c2C(=O)N(C2CCC(=O)NC2=O)C3=O)CC1` (stereo not shown) [SIAIS151028, 4-((2-(2-(2-(3-(4-(4-((5-chloro-4-((2-(isopropylsulfonyl)phenyl)amino)pyrimidin-2-yl)amino)-5-isopropoxy-2-methylphenyl)piperidin-1-yl)-3-oxopropoxy)ethoxy)ethoxy)ethyl)amino)-2-(2,6-dioxopiperidin-3-yl)isoindoline-1,3-dione], the pIC50 was 7.42 in the experiment on SR (NPM-ALK) cells (WST, Ceritinib based ALK PROTAD compounds (Table 5)); 8.22 in experiment [1] (CTB (Cell Titer Blue)); 7.10 in experiment [1] (CTG (Cell Titer Glo)). In experiment [2], this compound showed a DC50 of 20 to 100 nM.
Compound `Cc1cc(Nc2ncc(Cl)c(Nc3ccccc3S(=O)(=O)C(C)C)n2)c(OC(C)C)cc1C1CCN(C(=O)CCOCCOCCOCCOCCOCCNc2cccc3c2C(=O)N(C2CCC(=O)NC2=O)C3=O)CC1` (stereo not shown) [SIAIS151029, 4-((18-(4-(4-((5-chloro-4-((2-(isopropylsulfonyl)phenyl)amino)pyrimidin-2-yl)amino)-5-isopropoxy-2-methylphenyl)piperidin-1-yl)-18-oxo-3,6,9,12,15-pentaoxaoctadecyl)amino)-2-(2,6-dioxopiperidin-3-yl)isoindoline-1,3-dione] returned a DC50 in experiment [2] of 10 to 50 nM. Further, the results for the pIC50 in experiment [1] (CTB (Cell Titer Blue)) and in experiment [1] (CTG (Cell Titer Glo)) were 7.64 and 7.02, respectively.
For the compound `Cc1cc(Nc2ncc(Cl)c(Nc3ccccc3S(=O)(=O)C(C)C)n2)c(OC(C)C)cc1C1CCN(C(=O)CCCNc2cccc3c2C(=O)N(C2CCC(=O)NC2=O)C3=O)CC1` (stereo not shown) [SIAIS151035, 4-((4-(4-(4-((5-chloro-4-((2-(isopropylsulfonyl)phenyl)amino)pyrimidin-2-yl)amino)-5-isopropoxy-2-methylphenyl)piperidin-1-yl)-4-oxobutyl)amino)-2-(2,6-dioxopiperidin-3-yl)isoindoline-1,3-dione], the DC50 in experiment [2] fell in the range of 50 to 100 nM. In addition, in experiment [1] (CTB (Cell Titer Blue)), the pIC50 is 7.48.
The compound `Cc1cc(Nc2ncc(Cl)c(Nc3ccccc3S(=O)(=O)C(C)C)n2)c(OC(C)C)cc1C1CCN(C(=O)CNc2cccc3c2C(=O)N(C2CCC(=O)NC2=O)C3=O)CC1` (stereo not shown) [SIAIS151037, 4-((2-(4-(4-((5-chloro-4-((2-(isopropylsulfonyl)phenyl)amino)pyrimidin-2-yl)amino)-5-isopropoxy-2-methylphenyl)piperidin-1-yl)-2-oxoethyl)amino)-2-(2,6-dioxopiperidin-3-yl)isoindoline-1,3-dione] yielded a DC50 in experiment [2] of 50 to 100 nM. The same compound gave a pIC50 in experiment [1] (CTB (Cell Titer Blue)) of 6.82.
In turn, `Cc1cc(Nc2ncc(Cl)c(Nc3ccccc3S(=O)(=O)C(C)C)n2)c(OC(C)C)cc1C1CCN(C(=O)CCOCCOCCOCCOCCOCCC(=O)N[C@H](C(=O)N2C[C@H](O)C[C@H]2C(=O)NCc2ccc(-c3scnc3C)cc2)C(C)(C)C)CC1` [SIAIS151041, (2S,4R)-1-((S)-2-(tert-butyl)-22-(4-(4-((5-chloro-4-((2-(isopropylsulfonyl)phenyl)amino)pyrimidin-2-yl)amino)-5-isopropoxy-2-methylphenyl)piperidin-1-yl)-4,22-dioxo-7,10,13,16,19-pentaoxa-3-azadocosanoyl)-4-hydroxy-N-(4-(4-methylthiazol-5-yl)benzyl)pyrrolidine-2-carboxamide] gave a pIC50 in experiment [1] (CTB (Cell Titer Blue)) of 6.48.
The compound `Cc1cc(Nc2ncc(Cl)c(Nc3ccccc3S(=O)(=O)C(C)C)n2)c(OC(C)C)cc1C1CCN(C(=O)COCCOCC(=O)N[C@H](C(=O)N2C[C@H](O)C[C@H]2C(=O)NCc2ccc(-c3scnc3C)cc2)C(C)(C)C)CC1` [SIAIS151042, (2S,4R)-1-((S)-2-(2-(2-(2-(4-(4-((5-chloro-4-((2-(isopropylsulfonyl)phenyl)amino)pyrimidin-2-yl)amino)-5-isopropoxy-2-methylphenyl)piperidin-1-yl)-2-oxoethoxy)ethoxy)acetamido)-3,3-dimethylbutanoyl)-4-hydroxy-N-(4-(4-methylthiazol-5-yl)benzyl)pyrrolidine-2-carboxamide] gave a pIC50 in experiment [1] (CTB (Cell Titer Blue)) of 6.82.
Regarding `Cc1cc(Nc2ncc(Cl)c(Nc3ccccc3S(=O)(=O)C(C)C)n2)c(OC(C)C)cc1C1CCN(C(=O)CCCCCNc2cccc3c2C(=O)N(C2CCC(=O)NC2=O)C3=O)CC1` (stereo not shown) [SIAIS151043, 4-((6-(4-(4-((5-chloro-4-((2-(isopropylsulfonyl)phenyl)amino)pyrimidin-2-yl)amino)-5-isopropoxy-2-methylphenyl)piperidin-1-yl)-6-oxohexyl)amino)-2-(2,6-dioxopiperidin-3-yl)isoindoline-1,3-dione], the pIC50 in experiment [1] (CTB (Cell Titer Blue)) is 6.81.
